Results as given in publication PMC12040169 (PLOS Biology, 2025).

test: in vitro; conditions: human, hela cells, % viability

First: CCCC(=O)N1CCC(c2cc(C(F)F)c3c(C)noc3n2)CC1 [CBK285304]
Second: Cc1noc2nc(C3CCN(C(=O)C(C)C)CC3)cc(C(F)F)c12 [CBK285305]
The viability at 28.5 h, 10 µM of the first is higher: 102% for the first, 79.9% for the second.

Compared with `Fc1ccc(-c2[nH]c3ncccc3c2CN2CCOCC2)cc1` [CBK285310], `COc1ccc(-c2[nH]c3ncccc3c2CN2CCCC2)cc1` [CBK285331] is lower in viability at 28.5 h, 10 µM: 111% for the first, 69.4% for the second.

First: CC(C)c1[nH]c2ncccc2c1CN1CCSCC1 [CBK285312]
Second: CCN1CCN(Cc2c(C(C)C)[nH]c3ncccc23)CC1 [CBK285343]
The viability at 28.5 h, 10 µM of the first is higher: 94% for the first, 83.6% for the second.

Going from `c1cnc2[nH]c(C3CC3)c(CN3CCN4CCCCC4C3)c2c1` (stereo not drawn) [CBK285313] to `CN1CCN(Cc2c(C3CCCC3)[nH]c3ncccc23)CC1` [CBK285336], the viability at 28.5 h, 10 µM rises from 81.5% to 88.6%.

Going from `Cc1cc2c(cc1C)OC1(C=C2)CCN(C(=O)N2CCOCC2)CC1` [CBK285314] to `Cc1ccc(C(=O)N2CCC3(CC2)CNC(=O)c2ccccc2O3)o1` [CBK285328], the viability at 28.5 h, 10 µM falls from 94.4% to 88.3%.

Compared with `Cc1ccc(S(=O)(=O)N2C[C@H]3C[C@H](NC(=O)C(C)C)[C@H]3C2)cc1` [CBK285317], `Cc1ccc(S(=O)(=O)N2C[C@H]3C[C@H](NC(=O)C4CC4C)[C@H]3C2)cc1` (stereo partly drawn) [CBK285318] is higher in viability at 28.5 h, 10 µM: 107% for the first, 108% for the second.

First: O=C1NCC2(CCN(Cc3ccccc3)CC2)Oc2ccccc21 [CBK285323]
Second: O=C1NCCCC12CCN(Cc1ccc(F)cc1)CC2 [CBK285345]
The viability at 28.5 h, 10 µM of the first is higher: 91.8% for the first, 83.1% for the second.

`Cn1ncc2c1CCCN(C(=O)COc1ccccc1F)C2` [CBK285324] and `CCOc1ccc(CC(=O)N2CCCc3c(cnn3C)C2)cc1` [CBK285325] are the same in viability at 28.5 h, 10 µM: 101% for the first, 101% for the second.

First: COC(=O)C1(Cc2cc(-c3ccc(F)cc3)no2)CCOCC1 [CBK285329]
Second: COC(=O)C1(Cc2cc(-c3cccc(F)c3)no2)CCOCC1 [CBK285330]
The viability at 28.5 h, 10 µM of the first is lower: 79.3% for the first, 95.8% for the second.

Going from `COc1ccc(-c2[nH]c3ncccc3c2CN2CCSCC2)cc1` [CBK285338] to `COc1ccc(-c2cc3cccnc3n2CC(=O)N2CCCC2)cc1` [CBK285379], the viability at 28.5 h, 10 µM falls from 91.9% to 84.3%.

Compared with `CC1CN(Cc2c(C(F)(F)F)[nH]c3ncccc23)CC(C)O1` (stereo not drawn) [CBK285344], `CC(C)N1CCN(Cc2c(C(F)(F)F)[nH]c3ncccc23)CC1` [CBK285354] is lower in viability at 28.5 h, 10 µM: 88.5% for the first, 88.3% for the second.

First: O=C(NCc1ccccn1)c1ccc(-n2ccnc2)c(-n2cccc2)c1 [CBK285347]
Second: O=C(NCc1cccs1)c1ccc(-n2ccnc2)c(-n2cccc2)c1 [CBK285366]
The viability at 28.5 h, 10 µM of the first is lower: 80.8% for the first, 102% for the second.

Going from `COCC(=O)NC1CCN(CC2(c3ccc(C)cc3)CC2)CC1` [CBK285350] to `Cc1ccc(C2(CN3CCC(NC(=O)C4CC4)CC3)CC2)cc1` [CBK285359], the viability at 28.5 h, 10 µM falls from 104% to 83.9%.

Going from `O=C(NC1CCN(CC2(c3ccccc3)CC2)CC1)c1cc[nH]n1` [CBK285351] to `CC1CC1C(=O)NC1CCN(CC2(c3ccccc3)CC2)CC1` (stereo not drawn) [CBK285353], the viability at 28.5 h, 10 µM falls from 88.4% to 83.2%.

First: O=C(NC1CCN(CC2(c3ccccc3)CC2)CC1)C1CCOCC1 [CBK285352]
Second: COc1ccc(C2(CN3CCC(NC(=O)C4CC4)CC3)CC2)cc1 [CBK285358]
The viability at 28.5 h, 10 µM of the first is lower: 94.4% for the first, 101% for the second.

First: COc1ccc(C2(CN3CCC(NC(C)=O)CC3)CC2)cc1 [CBK285357]
Second: O=C(NC1CCCCC1)c1ccc(-n2ccnc2)c(-n2cccc2)c1 [CBK285365]
The viability at 28.5 h, 10 µM of the first is lower: 101% for the first, 107% for the second.

Compared with `CCN1CCN(Cc2c(C(F)(F)F)[nH]c3ncccc23)CC1` [CBK285362], `CC1CCCN(C(=O)c2ccc(-n3ccnc3)c(-n3cccc3)c2)C1` (stereo not drawn) [CBK285370] is lower in viability at 28.5 h, 10 µM: 95.2% for the first, 95.1% for the second.

Compared with `O=C(c1ccc(-n2ccnc2)c(-n2cccc2)c1)N1CCSCC1` [CBK285364], `COCCNC(=O)c1ccc(-n2ccnc2)c(-n2cccc2)c1` [CBK285369] is lower in viability at 28.5 h, 10 µM: 97.4% for the first, 85.5% for the second.
